Data published in patent US8759356B2, “Compounds and methods for controlling fungi” (Dow AgroSciences, LLC., priority 2009, dated 2014).

Tests used:
[1] = test system: Puccinia recondita tritici (PUCCRT); experiment: One day protectant test against leaf rust of wheat; format: in vivo; details: wheat 'Yuma' seedlings, inoculated the day after treatment
Method: (§1) It will be understood by those in the art that the efficacy of the compounds against the foregoing fungi establishes the general utility of the compounds as fungicides. The activity of the compounds as effective fungicides was determined by applying the compounds to plants and observing control of fungal disease. The compounds were formulated at rates of 50 ppm and 200 ppm in 10 vol. % acetone plus 90 vol. % Triton X water (deionized water 99.99 wt %+0.01 wt % Triton X100), giving a “formulated test compound.” Formulated test compounds were applied to plants using a turntable sprayer fitted with two opposing air atomization nozzles which delivered approximately 1500 L/ha of spray volume.
(§2) Again referring to Table 1, tests were carried out to determine a given exemplary compound's ability to prevent or at least limit a fungal infection as follows. All plants in the study were inoculated with spores of the fungus in this case either PUCCRT or SEPTTR) the day after treatment with the putative fungicide. Next, the plants were incubated in an environment conducive to disease development. Disease severity was evaluated 7 to 25 days later, depending on the speed of disease development. The following experiments were performed in the laboratory to determine the fungicidal efficacy of the compounds of the invention.
Measuring the Protective Effect of Various Compounds Against Leaf Rust of Wheat (Causal Agent Bayer Code PUCCRT).
Each pot contained 3-8 seedlings. These plants were sprayed until wet with the formulated test compounds. On the following day, the leaves were inoculated with an aqueous spore suspension of Puccinia recondita tritici and the plants were kept in high humidity overnight to permit the spores to germinate and to infect the leaf. The plants were then transferred to a greenhouse until disease developed on untreated control plants. These tests were carried out using two different levels of the compound, 50 ppm and 200 ppm, see Table 1.
(§3) Disease control was determined by visually estimating the percent disease severity in treated and untreated pots 7 to 24 days after inoculation, depending on speed of disease development. Evaluations were typically made 7 or 8 days after inoculation for PUCCRT and 18 to 22 days after inoculation for SEPTTR. Percent disease control (% DC) was calculated by: % DC=(1−% Disease severity treated/% disease severity untreated)*100.

[2] = test system: Septoria tritici (SEPTTR); experiment: Three day curative test against Septoria blotch of wheat; format: in vivo; details: wheat 'Yuma' seedlings, treated three days after inoculation
Method: as §1
Measuring the Curative Effect of Various Compounds Against Septoria Blotch of Wheat (Causal Agent Bayer Code SEPTTR).
Each pot contained 3-10 seedlings. These plants were inoculated with an aqueous spore suspension of Septoria tritici and the plants were kept in high humidity (one day in a dark dew chamber followed by two days in a lighted dew chamber) to permit the spores to germinate and to infect the leaf. The plants were then removed form the dew chamber and allowed to dry. After drying, the inoculated plants were sprayed until wet with the formulated test compound. On the following day, the plants were transferred to a greenhouse until disease developed on untreated control plants. These tests were carried out using two different levels of the compound, 50 ppm and 200 ppm, see Table 1.
as §3

[3] = test system: Septoria tritici (SEPTTR); experiment: One day protectant test against Septoria blotch of wheat; format: in vivo; details: wheat 'Yuma' seedlings, inoculated the day after treatment
Method: as §1, §2
Measuring the Preventative Effect of Various Compounds Against Septoria Blotch of Wheat (Causal Agent Bayer Code SEPTTR).
Each pot contained 3-10 seedlings. These plants were sprayed until wet with the formulated test compound. On the following day, the leaves were inoculated with an aqueous spore suspension of Septoria tritici and the plants were kept in high humidity (one day in a dark dew chamber followed by three days in a lighted dew chamber) to permit the spores to germinate and to infect the leaf. The plants were then transferred to a greenhouse until disease developed on untreated control plants. These tests were carried out using two different levels of the compound, 50 ppm and 200 ppm, see Table 1.
as §3

In the case of `Clc1ccc(-c2ncc(Cl)c(NC3CC3)n2)cc1` [Example 1], the “Percent Disease Control, One Day Protectant, PUCCRT” value (shortened to “Percent Disease Control … PUCCRT”) ([1]; 50 ppm spray) is reported as 93%, the “Percent Disease Control … PUCCRT” value ([1]; 200 ppm spray) is reported as 97% and the “Percent Disease Control, Three Day Curative, SEPTTR” value ([2]; 50 ppm spray) is reported as 0%. The “Percent Disease Control, Three Day Curative, SEPTTR” value ([2]; 200 ppm spray) was 0%, the “Percent Disease Control, One Day Protectant, SEPTTR” value ([3]; 50 ppm spray) was 90% and the “Percent Disease Control, One Day Protectant, SEPTTR” value ([3]; 200 ppm spray) was 97%. For the same compound, the melting point was 103 to 105 °C.
With `Cc1ccc(-c2ncc(Cl)c(NC3CC3)n2)cc1` [compound 6] the “Percent Disease Control … PUCCRT” value ([1]; 50 ppm spray) was 97%, the “Percent Disease Control … PUCCRT” value ([1]; 200 ppm spray) was 99% and the “Percent Disease Control, Three Day Curative, SEPTTR” value ([2]; 50 ppm spray) was 0%. For the same compound, the “Percent Disease Control, Three Day Curative, SEPTTR” value ([2]; 200 ppm spray) was 27%, the “Percent Disease Control, One Day Protectant, SEPTTR” value ([3]; 50 ppm spray) was 65% and the “Percent Disease Control, One Day Protectant, SEPTTR” value ([3]; 200 ppm spray) was 95%.
In the case of `Clc1ccc(-c2ncc(Cl)c(NC3CC3)n2)cc1Cl` [compound 2], the “Percent Disease Control … PUCCRT” value ([1]; 50 ppm spray) is reported as 0%, the “Percent Disease Control … PUCCRT” value ([1]; 200 ppm spray) is reported as 0% and the “Percent Disease Control, Three Day Curative, SEPTTR” value ([2]; 50 ppm spray) is reported as 62%. The “Percent Disease Control, Three Day Curative, SEPTTR” value ([2]; 200 ppm spray) was 72%, the “Percent Disease Control, One Day Protectant, SEPTTR” value ([3]; 50 ppm spray) was 0% and the “Percent Disease Control, One Day Protectant, SEPTTR” value ([3]; 200 ppm spray) was 35%.
With `Fc1cc(Cl)ccc1-c1ncc(Cl)c(NC2CC2)n1` [compound 4] the “Percent Disease Control … PUCCRT” value ([1]; 50 ppm spray) was 50%, the “Percent Disease Control … PUCCRT” value ([1]; 200 ppm spray) was 99% and the “Percent Disease Control, Three Day Curative, SEPTTR” value ([2]; 50 ppm spray) was 0%. For the same compound, the “Percent Disease Control, Three Day Curative, SEPTTR” value ([2]; 200 ppm spray) was 18%, the “Percent Disease Control, One Day Protectant, SEPTTR” value ([3]; 50 ppm spray) was 38% and the “Percent Disease Control, One Day Protectant, SEPTTR” value ([3]; 200 ppm spray) was 86%.
With `Clc1ccc(-c2nc(NC3CC3)ncc2Cl)cc1` [compound 7] the “Percent Disease Control … PUCCRT” value ([1]; 50 ppm spray) was 53%, the “Percent Disease Control … PUCCRT” value ([1]; 200 ppm spray) was 0% and the “Percent Disease Control, Three Day Curative, SEPTTR” value ([2]; 50 ppm spray) was 50%. The “Percent Disease Control, Three Day Curative, SEPTTR” value ([2]; 200 ppm spray) was 50%, the “Percent Disease Control, One Day Protectant, SEPTTR” value ([3]; 50 ppm spray) was 91% and the “Percent Disease Control, One Day Protectant, SEPTTR” value ([3]; 200 ppm spray) was 61%.
For `Clc1cnc(-c2ccccc2)nc1NC1CC1` [compound 5], the “Percent Disease Control … PUCCRT” value ([1]; 50 ppm spray) was 99%, the “Percent Disease Control … PUCCRT” value ([1]; 200 ppm spray) was 99% and the “Percent Disease Control, Three Day Curative, SEPTTR” value ([2]; 50 ppm spray) was 0%. For the same compound, the “Percent Disease Control, Three Day Curative, SEPTTR” value ([2]; 200 ppm spray) was 0%, the “Percent Disease Control, One Day Protectant, SEPTTR” value ([3]; 50 ppm spray) was 38% and the “Percent Disease Control, One Day Protectant, SEPTTR” value ([3]; 200 ppm spray) was 90%.
